Measured values published in ChEMBL document CHEMBL5050844 (2019).

What was measured:
Format in all cases: functional, T cell line
[1] = Induction of anti-CD3 antibodies-stimulated human T cell activation at 1 uM assessed fold increase in CD25 expression measured by ELISA assay; also: reference of the scale not given here
[2] = Induction of anti-CD3/CD28 antibodies-stimulated human T cell activation at 1 uM assessed fold increase in CD25 expression measured by ELISA assay
[3] = Induction of anti-CD3/CD28 antibodies-stimulated human T cell activation at 0.3 uM assessed fold increase in CD25 expression measured by ELISA assay
[4] = Induction of anti-CD3/CD28 antibodies-stimulated human T cell activation at 4 uM assessed fold increase in IL-2 secretion measured by ELISA assay
[5] = Induction of anti-CD3/CD28 antibodies-stimulated human T cell activation at 1 uM assessed fold increase in IL-2 secretion measured by ELISA assay
[6] = Induction of anti-CD3 antibodies-stimulated human T cell activation at 1 uM assessed fold increase in IL-2 secretion measured by ELISA assay; also: reference of the scale not given here
[7] = Induction of anti-CD3 antibodies-stimulated human T cell activation at 8 uM assessed fold increase in CD25 expression measured by ELISA assay; also: reference of the scale not given here
[8] = Induction of anti-CD3/CD28 antibodies-stimulated human T cell activation at 4 uM assessed fold increase in CD25 expression measured by ELISA assay
[9] = Induction of anti-CD3 antibodies-stimulated human T cell activation at 8 uM assessed fold increase in IL-2 secretion measured by ELISA assay; also: reference of the scale not given here
[10] = Induction of anti-CD3/CD28 antibodies-stimulated human T cell activation at 0.3 uM assessed fold increase in IL-2 secretion measured by ELISA assay

SMILES: Cc1conc1C[C@@H](C)c1cccc(N2Cc3c(cccc3C(F)(F)F)C2=O)c1
- fold change (FC) [1]: 0.601
- fold change (FC) [2]: <=1
- fold change (FC) [3]: 1.01
- fold change (FC) [4]: 1.01
- fold change (FC) [5]: <=1
- fold change (FC) [6]: 0.051
- fold change (FC) [7]: 0.801
- fold change (FC) [8]: 1.01
- fold change (FC) [9]: 0.151
- fold change (FC) [10]: <=1

SMILES: C[C@H](Sc1nncn1C)c1cccc(NC(=O)c2ccc(Cl)c(C(F)(F)F)n2)c1
- fold change (FC) [1]: 0.801
- fold change (FC) [2]: 1.01
- fold change (FC) [3]: 1.01
- fold change (FC) [4]: 1.01
- fold change (FC) [5]: <=1
- fold change (FC) [6]: <=0.05
- fold change (FC) [7]: >=1.001
- fold change (FC) [8]: 1.01
- fold change (FC) [9]: <=0.05
- fold change (FC) [10]: <=1

SMILES: C[C@@H](Cc1nncn1C)c1cccc(NC(=O)c2cc(C3CC3)cc(C(F)(F)F)n2)c1
- fold change (FC) [1]: 0.601
- fold change (FC) [2]: 1.01
- fold change (FC) [3]: 1.01
- fold change (FC) [4]: 1.01
- fold change (FC) [5]: 1.01
- fold change (FC) [6]: 0.051
- fold change (FC) [7]: 0.601
- fold change (FC) [8]: 1.01
- fold change (FC) [9]: 0.101
- fold change (FC) [10]: 1.01

SMILES: C[C@H](Cc1nncn1C)c1cc(OCCO)nc(N2Cc3c(cccc3C(F)(F)F)C2=O)c1
- fold change (FC) [1]: 0.601
- fold change (FC) [2]: 1.01
- fold change (FC) [3]: 1.01
- fold change (FC) [4]: 2.51
- fold change (FC) [5]: 1.01
- fold change (FC) [6]: 0.051
- fold change (FC) [7]: >=1.001
- fold change (FC) [8]: 1.31
- fold change (FC) [9]: >=0.201
- fold change (FC) [10]: 1.01

SMILES: C[C@H](Cc1nnc[nH]1)c1cccc(N2Cc3c(cccc3C(F)(F)F)C2=O)c1
- fold change (FC) [1]: <=0.6
- fold change (FC) [2]: 1.31
- fold change (FC) [3]: 1.01
- fold change (FC) [4]: 1.01
- fold change (FC) [5]: <=1
- fold change (FC) [6]: <=0.05
- fold change (FC) [7]: <=0.6
- fold change (FC) [8]: 1.31
- fold change (FC) [9]: <=0.05
- fold change (FC) [10]: <=1

SMILES: C[C@H](Sc1nncn1C)c1cccc(NC(=O)c2cc(Cl)cc(C(F)(F)F)n2)c1
- fold change (FC) [1]: 0.601
- fold change (FC) [2]: 1.01
- fold change (FC) [3]: 1.01
- fold change (FC) [4]: 1.01
- fold change (FC) [5]: 1.01
- fold change (FC) [6]: <=0.05
- fold change (FC) [7]: 0.801
- fold change (FC) [8]: 1.01
- fold change (FC) [9]: 0.051
- fold change (FC) [10]: 1.01

SMILES: Cc1cc(C(=O)Nc2cccc([C@H](C)Cc3nncs3)c2)nc(C2CC2)n1
- fold change (FC) [1]: 0.601
- fold change (FC) [2]: 1.01
- fold change (FC) [3]: 1.01
- fold change (FC) [4]: 5
- fold change (FC) [5]: 2.51
- fold change (FC) [6]: 0.101
- fold change (FC) [7]: 0.801
- fold change (FC) [8]: 1.01
- fold change (FC) [9]: >=0.201
- fold change (FC) [10]: 1.01

SMILES: Cn1cnnc1C(F)(F)[C@](C)(F)c1cccc(NC(=O)c2nc3c(C(F)(F)F)cccc3[nH]2)c1
- fold change (FC) [1]: 0.601
- fold change (FC) [2]: 1.01
- fold change (FC) [3]: 1.01
- fold change (FC) [4]: 2.51
- fold change (FC) [5]: 1.01
- fold change (FC) [6]: 0.051
- fold change (FC) [7]: 0.601
- fold change (FC) [8]: 1.01
- fold change (FC) [9]: 0.151
- fold change (FC) [10]: 1.01

SMILES: CC1OCC1Oc1cc([C@H](C)Cc2nncn2C)cc(N2Cc3c(cccc3C(F)(F)F)C2=O)n1 (stereo not given in full)
- fold change (FC) [1]: 0.601
- fold change (FC) [2]: 1.01
- fold change (FC) [3]: 1.01
- fold change (FC) [4]: 1.01
- fold change (FC) [5]: 1.01
- fold change (FC) [6]: 0.051
- fold change (FC) [7]: 0.601
- fold change (FC) [8]: 1.01
- fold change (FC) [9]: 0.101
- fold change (FC) [10]: 1.01

SMILES: Cc1nc(C(=O)Nc2cccc([C@H](C)Sc3nncn3C)c2)ccc1Cl
- fold change (FC) [1]: <=0.6
- fold change (FC) [2]: 1.01
- fold change (FC) [3]: <=1
- fold change (FC) [4]: >=7.5
- fold change (FC) [5]: 5
- fold change (FC) [6]: <=0.05
- fold change (FC) [7]: 0.801
- fold change (FC) [8]: 1.01
- fold change (FC) [9]: 0.051
- fold change (FC) [10]: 2.51

SMILES: Cn1cnnc1[C@H](F)[C@@](C)(F)c1cccc(N2Cc3c(cc(C4CC4)cc3C(F)(F)F)C2=O)c1 (single isomer, unassigned; 482)
- fold change (FC) [1]: 0.601
- fold change (FC) [2]: 1.01
- fold change (FC) [3]: 1.01
- fold change (FC) [4]: 1.01
- fold change (FC) [5]: 1.01
- fold change (FC) [6]: 0.051
- fold change (FC) [7]: 0.801
- fold change (FC) [8]: 1.01
- fold change (FC) [9]: 0.051
- fold change (FC) [10]: <=1

SMILES: Cc1cc(C(=O)Nc2cccc([C@H]3C[C@H]3c3nncn3C)c2)nc(C2CC2)n1
- fold change (FC) [1]: 0.801
- fold change (FC) [2]: 1.01
- fold change (FC) [3]: 1.01
- fold change (FC) [4]: 5
- fold change (FC) [5]: 2.51
- fold change (FC) [6]: 0.101
- fold change (FC) [7]: >=1.001
- fold change (FC) [8]: 1.01
- fold change (FC) [9]: >=0.201
- fold change (FC) [10]: 1.01

SMILES: C[C@H](Cc1nncn1C)c1cccc(NC(=O)c2cccc(S(C)(=O)=O)n2)c1
- fold change (FC) [1]: <=0.6
- fold change (FC) [2]: >=1.76
- fold change (FC) [3]: 1.01
- fold change (FC) [4]: 2.51
- fold change (FC) [5]: 1.01
- fold change (FC) [6]: 0.051
- fold change (FC) [7]: <=0.6
- fold change (FC) [8]: >=1.76
- fold change (FC) [9]: 0.051
- fold change (FC) [10]: 1.01

SMILES: C[C@H](Cc1nncn1C)c1cccc(NC(=O)c2cc(C(C)(C)O)cc(C(F)(F)F)n2)c1
- fold change (FC) [1]: 0.801
- fold change (FC) [2]: 1.01
- fold change (FC) [3]: 1.01
- fold change (FC) [4]: 5
- fold change (FC) [5]: 2.51
- fold change (FC) [6]: 0.101
- fold change (FC) [7]: >=1.001
- fold change (FC) [8]: 1.01
- fold change (FC) [9]: >=0.201
- fold change (FC) [10]: 1.01

SMILES: COc1cccc(C(=O)Nc2cccc([C@H](C)Sc3nncn3C)c2)n1
- fold change (FC) [1]: <=0.6
- fold change (FC) [2]: <=1
- fold change (FC) [3]: <=1
- fold change (FC) [4]: 2.51
- fold change (FC) [5]: 1.01
- fold change (FC) [6]: 0.101
- fold change (FC) [7]: 0.601
- fold change (FC) [8]: 1.31
- fold change (FC) [9]: 0.151
- fold change (FC) [10]: 1.01

SMILES: C[C@H](Cc1nncn1C)c1cc(NC2COC2)cc(N2Cc3c(cccc3C(F)(F)F)C2=O)c1
- fold change (FC) [1]: 0.601
- fold change (FC) [2]: 1.01
- fold change (FC) [3]: 1.01
- fold change (FC) [4]: 1.01
- fold change (FC) [5]: 1.01
- fold change (FC) [6]: 0.051
- fold change (FC) [7]: 0.801
- fold change (FC) [8]: 1.01
- fold change (FC) [9]: 0.051
- fold change (FC) [10]: <=1

SMILES: C[C@H](Sc1nncn1C)c1cccc(NC(=O)c2cc(C3(O)COC3)cc(C(F)(F)F)n2)c1
- fold change (FC) [1]: <=0.6
- fold change (FC) [2]: 1.01
- fold change (FC) [3]: <=1
- fold change (FC) [4]: <=1
- fold change (FC) [5]: <=1
- fold change (FC) [6]: <=0.05
- fold change (FC) [7]: 0.601
- fold change (FC) [8]: 1.01
- fold change (FC) [9]: <=0.05
- fold change (FC) [10]: <=1

SMILES: C[C@H](Cc1nncn1C)c1cccc(N2Cc3c(ccnc3C(F)(F)F)C2=O)c1
- fold change (FC) [1]: 0.801
- fold change (FC) [2]: 1.01
- fold change (FC) [3]: 1.01
- fold change (FC) [4]: 5
- fold change (FC) [5]: 2.51
- fold change (FC) [6]: 0.101
- fold change (FC) [7]: >=1.001
- fold change (FC) [8]: 1.01
- fold change (FC) [9]: >=0.201
- fold change (FC) [10]: 1.01

SMILES: Cn1cnnc1C[C@](C)(F)c1cccc(N2Cc3c(cccc3C(F)(F)F)C2=O)c1
- fold change (FC) [1]: 0.601
- fold change (FC) [2]: <=1
- fold change (FC) [3]: 1.01
- fold change (FC) [4]: 1.01
- fold change (FC) [5]: 1.01
- fold change (FC) [6]: 0.051
- fold change (FC) [7]: 0.801
- fold change (FC) [8]: 1.01
- fold change (FC) [9]: 0.101
- fold change (FC) [10]: 1.01

SMILES: C[C@H](Cc1nncn1C)c1cccc(N2Cc3c(ccnc3C3CCC3)C2=O)c1
- fold change (FC) [1]: >=1.001
- fold change (FC) [2]: 1.01
- fold change (FC) [3]: <=1
- fold change (FC) [4]: 5
- fold change (FC) [5]: 2.51
- fold change (FC) [6]: 0.051
- fold change (FC) [7]: >=1.001
- fold change (FC) [8]: 1.01
- fold change (FC) [9]: 0.101
- fold change (FC) [10]: 1.01

SMILES: Cn1cnnc1[C@H](F)[C@](C)(F)c1cccc(N2Cc3c(cc(C4CC4)cc3C(F)(F)F)C2=O)c1
- fold change (FC) [1]: 0.801
- fold change (FC) [2]: 1.01
- fold change (FC) [3]: 1.01
- fold change (FC) [4]: 2.51
- fold change (FC) [5]: 1.01
- fold change (FC) [6]: 0.051
- fold change (FC) [7]: >=1.001
- fold change (FC) [8]: 1.01
- fold change (FC) [9]: 0.101
- fold change (FC) [10]: <=1

SMILES: C[C@H](Sc1nncn1C)c1cccc(N2Cc3c(ccnc3Cl)C2=O)c1
- fold change (FC) [1]: <=0.6
- fold change (FC) [2]: 1.01
- fold change (FC) [3]: 1.51
- fold change (FC) [4]: 2.51
- fold change (FC) [5]: <=1
- fold change (FC) [6]: <=0.05
- fold change (FC) [7]: 0.601
- fold change (FC) [8]: >=1.76
- fold change (FC) [9]: 0.101
- fold change (FC) [10]: 1.01
